The text below walks through data of US5322859A, “Antiglaucoma drug composition and method” (University of Iowa Research Foundation, priority 1993, dated 1994).

One test relates to Serotonin 1 Receptor. Nature of the test: NovaScreen receptor binding, Serotonin 1 Receptor. Here is the method: (§1) A number of compounds were sent to NovaScreen® (5200 Freeport Centre, Baltimore, Md. 21224) to determine the compounds' receptor selectivity. […] Compounds which show inhibition of 50% or greater at an assay concentration of 10 μM to 1 nM are considered active or very potent, respectively. In the table below a number of compounds show significant results for two or more of the significant receptors.

The next test concerns Alpha 2 Receptor. Nature of the test: NovaScreen receptor binding, Alpha 2 Receptor. How it is done: as §1
The next test has as its system rabbit eye. Nature of the test: IOP recovery rate assay (hypertonic sodium chloride infusion, topical drug). The test is classed as in vivo. To be noted: 0.6% solution. Here is the method: The "IOP recovery rate assay" as reported by Vareilles and Lotti (Ophthalmic Res., 13, 72-79, 1981) is used.
IOP was measured at 15, 25, 35, 45, 60, 75, 90 and 120 minutes with an applanation pneumatonometer (Digilab Model D). Fifty uL of a 0.6% solution of N,N'-dimethyl-2-phenylethylamine containing a pH 7.4 phosphate buffer was administered topically to the right eye 60 minutes before the start of the sodium chloride infusion. Control animals were given vehicle without drug.
The hypertonic sodium chloride solution causes a temporary decline in IOP which returns to normal IOP in about 90 minutes if no drug is administered. IOP gradually returns to normal at a constant rate buy more slowly if the in vivo secretion rate of aqueous humor is reduced due to the presence of drug. The return to normal IOP is measured from the positive linear slope which is a measure of the constant rate of return to normal IOP and begins at about 30-45 minutes after starting the NaCl infusion. A comparison of the slope with and without the addition of N=2, R&R'=CH3 to the rabbit eye is expressed as "% reduction".

The next test concerns the target Serotonin 2 Receptor (Homo sapiens, UniProt P28223). Nature of the test: NovaScreen receptor binding, Serotonin 2 Receptor. The conditions noted are these: for inhibition at 10 µM: 10^-5 M (10 μM); for inhibition at 0.1 µM: 10^-7 M (100 nM); for inhibition at 0.001 µM: 10^-9 M (1 nM). Here is the method: as §1
A further test deals with eye. To be noted: previously disclosed by applicants; 0.2% to about 0.6% w/v preferred; cited from earlier work.

The inhibition is the drop in the measured response relative to a control, in per cent.

Sequence of Serotonin 2 Receptor (P28223 whole entry): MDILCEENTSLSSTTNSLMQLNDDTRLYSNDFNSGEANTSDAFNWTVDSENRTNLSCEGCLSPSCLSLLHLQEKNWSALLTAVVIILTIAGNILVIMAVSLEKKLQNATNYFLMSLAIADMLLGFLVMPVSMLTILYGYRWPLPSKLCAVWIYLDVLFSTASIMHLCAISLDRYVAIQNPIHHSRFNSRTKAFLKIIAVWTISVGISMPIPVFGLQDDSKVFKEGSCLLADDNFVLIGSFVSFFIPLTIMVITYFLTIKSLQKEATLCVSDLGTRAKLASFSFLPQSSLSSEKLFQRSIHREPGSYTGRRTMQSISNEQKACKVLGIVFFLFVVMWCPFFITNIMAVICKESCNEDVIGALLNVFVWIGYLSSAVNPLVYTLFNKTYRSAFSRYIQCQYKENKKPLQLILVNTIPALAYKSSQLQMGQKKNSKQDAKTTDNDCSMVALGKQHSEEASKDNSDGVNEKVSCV

In the case of `CCN(C)Cc1ccccc1` [n = 1, R = CH3, R' = C2 H5], the “% INHIBITION” value in the test with Serotonin 1 Receptor (10^-5 M (10 μM)) stood at 17.2%; with Serotonin 1 Receptor (10^-7 M (100 nM)) it was 6.2%; in the test on Serotonin 1 Receptor (10^-9 M (1 nM)), 5.7%; with Alpha 2 Receptor (10^-5 M (10 μM)) it was 53.0%; with Alpha 2 Receptor (10^-7 M (100 nM)), 4.7%; in the test with Alpha 2 Receptor (10^-9 M (1 nM)), 2.2%.

On to `CN(C)CCc1ccccc1` [n = 2, R&R' = CH3, N,N-dimethyl-2-phenylethylamine], for which the “% INHIBITION” value with Serotonin 1 Receptor (10^-5 M (10 μM)) worked out at 82.3%; in the test on Serotonin 1 Receptor (10^-7 M (100 nM)) it was 70.6%; in the test with Serotonin 1 Receptor (10^-9 M (1 nM)), 62.3%; in the test with Alpha 2 Receptor (10^-5 M (10 μM)) it was 96.7%; in the test with Alpha 2 Receptor (10^-7 M (100 nM)), 15.3%; in the test with Alpha 2 Receptor (10^-9 M (1 nM)) it was 8.1%. The “average slope of return to normal IOP” value in the test with rabbit eye (50 uL topical to right eye 60 min before NaCl infusion, n = 12 rabbit eyes, ± standard deviation, vehicle only 0.109 ± 0.0268) came out at 0.066 ± 0.027. Also, in the test with rabbit eye (topical, n = 12 rabbit eyes), the “% Reduction of slope vs vehicle” value stood at 38.5%. Moreover, the “in vivo antiglaucoma activity” value with rabbit eye (topical, rabbit eye) is recorded as “potent in vivo antiglaucoma drug”. For the same molecule, the inhibition at 10 µM at Serotonin 2 Receptor came to 46.9%. In addition, at Serotonin 2 Receptor, the inhibition at 0.1 µM is 10.7%. The inhibition at 0.001 µM on Serotonin 2 Receptor was -2.1%. In addition, the tear stimulation entry with eye is on record as “ophthalmically effective tear stimulant”.

On to `CCCCCCN(C)CCc1ccccc1` [n = 2, R = CH3, R' = n-hexyl], for which the “% INHIBITION” value with Serotonin 1 Receptor (10^-5 M (10 μM)) came out at 55.0%; in the test with Serotonin 1 Receptor (10^-7 M (100 nM)), 30.0%; with Serotonin 1 Receptor (10^-9 M (1 nM)) it was 10.3%; with Alpha 2 Receptor (10^-5 M (10 μM)), 95.7%; in the test on Alpha 2 Receptor (10^-7 M (100 nM)), 6.7%; in the test with Alpha 2 Receptor (10^-9 M (1 nM)), 1.6%. The inhibition at 10 µM on Serotonin 2 Receptor was 92%. For the same molecule, on Serotonin 2 Receptor, the inhibition at 0.1 µM was 9.6%. Also, the inhibition at 0.001 µM at Serotonin 2 Receptor was 2.3%.

As to `CN(CCCc1ccccc1)C1CCCCC1` [n = 3, R = methyl, R' = cyclohexyl], the “% INHIBITION” value in the test with Serotonin 1 Receptor (10^-5 M (10 μM)) is on record as 5.7%; with Serotonin 1 Receptor (10^-7 M (100 nM)), -10.2%; in the test with Serotonin 1 Receptor (10^-9 M (1 nM)), -6.3%; in the test with Alpha 2 Receptor (10^-5 M (10 μM)), 81.0%; in the test on Alpha 2 Receptor (10^-7 M (100 nM)) it was 9.3%; with Alpha 2 Receptor (10^-9 M (1 nM)) it was 3.3%. For the same molecule, the inhibition at 10 µM at Serotonin 2 Receptor came to 82.1%. For the same molecule, the inhibition at 0.1 µM on Serotonin 2 Receptor is -8%. The inhibition at 0.001 µM at Serotonin 2 Receptor is -15.4%.

For the molecule `CCN(CCc1ccccc1)C1CCCCC1.Cl` [n = 2, R = C2 H5, R' = cyclohexyl, N-cyclohexyl-N-ethyl 2-phenylethylamine hydrochloride], the “% INHIBITION” value with Serotonin 1 Receptor (10^-5 M (10 μM)) came to 12.2%. Also, in the test on Serotonin 1 Receptor (10^-7 M (100 nM)), the “% INHIBITION” value is listed as -4.0%. The “% INHIBITION” value in the test with Serotonin 1 Receptor (10^-9 M (1 nM)) is reported as 2.6%. At Serotonin 2 Receptor, the inhibition at 10 µM came out at 48.9%, the inhibition at 0.1 µM came out at 4.7% and the inhibition at 0.001 µM was -11.2%.
